Test results reported in ChEMBL document CHEMBL1153704, “Imidazo[1,2-a]pyrazine diaryl ureas: inhibitors of the receptor tyrosine kinase EphB4” (Bioorg Med Chem Lett, 2009).

Legend:
[1] = biological target: T1, Ephrin type-B receptor 4 (Homo sapiens, UniProt P54760); assay: Inhibition of EphB4 after 1 hr
T1 sequence (P54760 whole entry): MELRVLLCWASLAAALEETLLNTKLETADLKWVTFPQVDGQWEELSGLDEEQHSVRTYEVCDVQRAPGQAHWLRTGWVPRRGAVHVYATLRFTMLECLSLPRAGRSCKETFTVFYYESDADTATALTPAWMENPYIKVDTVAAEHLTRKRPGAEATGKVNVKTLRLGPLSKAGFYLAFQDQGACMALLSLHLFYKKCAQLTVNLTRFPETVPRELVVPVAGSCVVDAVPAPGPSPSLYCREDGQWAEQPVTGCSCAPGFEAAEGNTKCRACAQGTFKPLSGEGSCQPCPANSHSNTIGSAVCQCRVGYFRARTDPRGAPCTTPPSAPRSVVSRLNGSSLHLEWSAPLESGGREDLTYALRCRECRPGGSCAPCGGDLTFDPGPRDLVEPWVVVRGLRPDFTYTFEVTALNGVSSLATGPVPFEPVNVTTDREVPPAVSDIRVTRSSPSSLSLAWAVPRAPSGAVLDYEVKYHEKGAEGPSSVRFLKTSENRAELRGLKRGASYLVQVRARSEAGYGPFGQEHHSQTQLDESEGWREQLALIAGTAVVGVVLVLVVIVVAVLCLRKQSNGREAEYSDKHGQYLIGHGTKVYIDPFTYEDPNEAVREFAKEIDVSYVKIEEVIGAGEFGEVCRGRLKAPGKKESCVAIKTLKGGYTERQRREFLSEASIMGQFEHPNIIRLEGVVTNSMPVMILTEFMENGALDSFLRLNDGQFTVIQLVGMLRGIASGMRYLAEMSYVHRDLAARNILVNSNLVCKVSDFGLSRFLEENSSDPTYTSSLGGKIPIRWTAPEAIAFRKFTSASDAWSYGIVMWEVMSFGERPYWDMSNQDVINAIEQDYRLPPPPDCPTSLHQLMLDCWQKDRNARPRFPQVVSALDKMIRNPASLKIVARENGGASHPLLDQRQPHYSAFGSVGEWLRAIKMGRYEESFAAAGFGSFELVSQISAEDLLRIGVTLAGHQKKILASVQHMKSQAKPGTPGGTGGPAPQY

[2] = biological target: Tyrosine-protein kinase ABL1 (Homo sapiens, UniProt P00519); assay: Inhibition of Abl1 after 1 hr
[3] = biological target: Tyrosine-protein kinase BTK (Homo sapiens, UniProt Q06187); assay: Inhibition of Btk after 1 hr
[4] = biological target: Ephrin type-A receptor 2 (Homo sapiens, UniProt P29317); assay: Inhibition of EPHA2 after 1 hr
[5] = biological target: T2, Receptor-type tyrosine-protein kinase FLT3 (Homo sapiens, UniProt P36888); assay: Inhibition of Flt3 after 1 hr
T2 sequence (P36888 whole entry): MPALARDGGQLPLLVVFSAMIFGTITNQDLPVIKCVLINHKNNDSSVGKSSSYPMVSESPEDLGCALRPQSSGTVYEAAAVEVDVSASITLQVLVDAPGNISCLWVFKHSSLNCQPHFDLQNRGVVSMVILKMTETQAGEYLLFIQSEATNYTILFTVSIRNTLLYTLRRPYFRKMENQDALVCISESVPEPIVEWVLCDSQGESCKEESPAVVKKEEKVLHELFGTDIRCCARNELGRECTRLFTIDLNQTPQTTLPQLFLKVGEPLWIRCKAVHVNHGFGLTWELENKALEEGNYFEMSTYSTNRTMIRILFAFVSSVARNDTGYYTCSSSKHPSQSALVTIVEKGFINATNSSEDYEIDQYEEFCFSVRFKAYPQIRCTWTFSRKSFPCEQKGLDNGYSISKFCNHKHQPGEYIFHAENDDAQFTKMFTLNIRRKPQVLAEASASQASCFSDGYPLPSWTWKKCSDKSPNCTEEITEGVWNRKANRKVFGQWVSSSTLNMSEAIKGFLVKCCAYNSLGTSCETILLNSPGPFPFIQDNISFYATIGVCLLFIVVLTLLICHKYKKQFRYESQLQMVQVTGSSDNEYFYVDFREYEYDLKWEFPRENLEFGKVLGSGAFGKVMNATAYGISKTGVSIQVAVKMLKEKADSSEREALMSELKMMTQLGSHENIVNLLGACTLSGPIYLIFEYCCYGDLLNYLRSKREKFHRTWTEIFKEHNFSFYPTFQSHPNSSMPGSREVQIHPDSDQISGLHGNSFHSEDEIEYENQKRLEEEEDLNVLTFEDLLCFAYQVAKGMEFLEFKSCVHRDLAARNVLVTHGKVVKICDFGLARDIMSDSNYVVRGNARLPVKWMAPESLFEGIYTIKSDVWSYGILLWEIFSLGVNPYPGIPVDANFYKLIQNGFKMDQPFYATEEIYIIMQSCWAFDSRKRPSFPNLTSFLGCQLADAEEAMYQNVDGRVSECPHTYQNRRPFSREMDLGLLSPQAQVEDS

[6] = biological target: Tyrosine-protein kinase Lyn (Homo sapiens, UniProt P07948); assay: Inhibition of Lyn after 1 hr
[7] = biological target: Platelet-derived growth factor receptor beta (Homo sapiens, UniProt P09619); assay: Inhibition of PDGFRbeta after 1 hr
[8] = biological target: Angiopoietin-1 receptor (Homo sapiens, UniProt Q02763); assay: Inhibition of Tie2 after 1 hr
[9] = biological target: Vascular endothelial growth factor receptor 1 (Homo sapiens, UniProt P17948); assay: Inhibition of VEGFR1 after 1 hr
[10] = biological target: Vascular endothelial growth factor receptor 2 (Homo sapiens, UniProt P35968); assay: Inhibition of VEGFR2 after 1 hr
[11] = biological target: Vascular endothelial growth factor receptor 3 (Homo sapiens, UniProt P35916); assay: Inhibition of VEGFR3 after 1 hr

Sequence of Ephrin type-A receptor 2 (P29317 whole entry): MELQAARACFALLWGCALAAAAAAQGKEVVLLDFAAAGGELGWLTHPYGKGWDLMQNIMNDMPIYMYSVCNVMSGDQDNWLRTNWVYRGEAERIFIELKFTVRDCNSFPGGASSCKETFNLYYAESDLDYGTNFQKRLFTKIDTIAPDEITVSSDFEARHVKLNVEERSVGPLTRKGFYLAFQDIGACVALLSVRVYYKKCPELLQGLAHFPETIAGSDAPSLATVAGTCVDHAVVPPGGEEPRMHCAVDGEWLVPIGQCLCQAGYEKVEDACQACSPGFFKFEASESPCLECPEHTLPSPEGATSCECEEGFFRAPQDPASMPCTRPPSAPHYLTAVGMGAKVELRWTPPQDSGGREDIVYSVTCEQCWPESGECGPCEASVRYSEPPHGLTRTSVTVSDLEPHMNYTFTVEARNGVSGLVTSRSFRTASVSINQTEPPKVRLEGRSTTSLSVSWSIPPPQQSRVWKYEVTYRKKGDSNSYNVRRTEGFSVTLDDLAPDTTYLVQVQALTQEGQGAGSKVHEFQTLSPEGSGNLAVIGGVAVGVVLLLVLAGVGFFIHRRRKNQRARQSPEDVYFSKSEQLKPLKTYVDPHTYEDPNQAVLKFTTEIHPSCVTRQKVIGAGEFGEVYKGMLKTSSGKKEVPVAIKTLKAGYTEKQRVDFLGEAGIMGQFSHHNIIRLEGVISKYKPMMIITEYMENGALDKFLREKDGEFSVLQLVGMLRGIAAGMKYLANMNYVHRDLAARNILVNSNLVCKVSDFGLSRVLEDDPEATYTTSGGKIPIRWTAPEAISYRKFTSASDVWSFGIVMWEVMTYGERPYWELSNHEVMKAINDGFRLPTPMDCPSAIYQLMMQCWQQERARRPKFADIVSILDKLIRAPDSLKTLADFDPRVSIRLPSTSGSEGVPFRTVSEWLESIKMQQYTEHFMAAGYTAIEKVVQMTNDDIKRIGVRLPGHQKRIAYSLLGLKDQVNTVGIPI
Sequence of Vascular endothelial growth factor receptor 2 (P35968 whole entry): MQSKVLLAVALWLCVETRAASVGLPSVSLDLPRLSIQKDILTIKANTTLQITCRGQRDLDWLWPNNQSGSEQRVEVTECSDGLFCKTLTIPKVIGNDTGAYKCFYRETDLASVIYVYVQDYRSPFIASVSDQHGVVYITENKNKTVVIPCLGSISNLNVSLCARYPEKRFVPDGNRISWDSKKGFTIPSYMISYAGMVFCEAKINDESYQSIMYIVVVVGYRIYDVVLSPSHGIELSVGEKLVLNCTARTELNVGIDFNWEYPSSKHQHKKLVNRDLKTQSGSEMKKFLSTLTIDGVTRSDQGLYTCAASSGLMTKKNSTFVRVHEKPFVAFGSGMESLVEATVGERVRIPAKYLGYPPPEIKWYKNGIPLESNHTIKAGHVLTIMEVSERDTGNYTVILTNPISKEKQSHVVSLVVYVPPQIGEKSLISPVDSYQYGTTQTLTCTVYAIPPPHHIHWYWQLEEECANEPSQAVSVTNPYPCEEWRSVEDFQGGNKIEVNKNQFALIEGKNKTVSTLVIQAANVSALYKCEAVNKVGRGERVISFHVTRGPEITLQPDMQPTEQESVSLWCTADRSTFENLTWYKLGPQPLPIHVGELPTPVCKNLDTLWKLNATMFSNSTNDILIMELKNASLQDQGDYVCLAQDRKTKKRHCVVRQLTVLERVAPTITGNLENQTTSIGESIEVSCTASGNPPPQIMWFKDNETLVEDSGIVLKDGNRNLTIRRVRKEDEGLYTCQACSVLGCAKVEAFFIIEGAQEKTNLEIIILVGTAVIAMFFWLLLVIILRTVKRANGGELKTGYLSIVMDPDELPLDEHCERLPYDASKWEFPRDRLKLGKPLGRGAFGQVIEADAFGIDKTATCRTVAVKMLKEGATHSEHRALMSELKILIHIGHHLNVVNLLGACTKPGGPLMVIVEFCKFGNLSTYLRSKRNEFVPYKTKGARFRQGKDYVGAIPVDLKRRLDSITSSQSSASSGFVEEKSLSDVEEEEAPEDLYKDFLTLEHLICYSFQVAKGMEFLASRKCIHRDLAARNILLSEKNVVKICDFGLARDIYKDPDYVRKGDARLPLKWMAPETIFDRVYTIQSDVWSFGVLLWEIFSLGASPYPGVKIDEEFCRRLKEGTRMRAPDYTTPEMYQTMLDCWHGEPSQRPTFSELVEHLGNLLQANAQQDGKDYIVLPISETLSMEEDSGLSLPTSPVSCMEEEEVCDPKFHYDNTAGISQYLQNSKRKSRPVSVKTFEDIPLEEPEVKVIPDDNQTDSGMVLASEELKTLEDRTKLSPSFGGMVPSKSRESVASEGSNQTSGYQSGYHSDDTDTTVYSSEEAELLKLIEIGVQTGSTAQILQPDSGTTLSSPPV
Sequence of Angiopoietin-1 receptor (Q02763 whole entry): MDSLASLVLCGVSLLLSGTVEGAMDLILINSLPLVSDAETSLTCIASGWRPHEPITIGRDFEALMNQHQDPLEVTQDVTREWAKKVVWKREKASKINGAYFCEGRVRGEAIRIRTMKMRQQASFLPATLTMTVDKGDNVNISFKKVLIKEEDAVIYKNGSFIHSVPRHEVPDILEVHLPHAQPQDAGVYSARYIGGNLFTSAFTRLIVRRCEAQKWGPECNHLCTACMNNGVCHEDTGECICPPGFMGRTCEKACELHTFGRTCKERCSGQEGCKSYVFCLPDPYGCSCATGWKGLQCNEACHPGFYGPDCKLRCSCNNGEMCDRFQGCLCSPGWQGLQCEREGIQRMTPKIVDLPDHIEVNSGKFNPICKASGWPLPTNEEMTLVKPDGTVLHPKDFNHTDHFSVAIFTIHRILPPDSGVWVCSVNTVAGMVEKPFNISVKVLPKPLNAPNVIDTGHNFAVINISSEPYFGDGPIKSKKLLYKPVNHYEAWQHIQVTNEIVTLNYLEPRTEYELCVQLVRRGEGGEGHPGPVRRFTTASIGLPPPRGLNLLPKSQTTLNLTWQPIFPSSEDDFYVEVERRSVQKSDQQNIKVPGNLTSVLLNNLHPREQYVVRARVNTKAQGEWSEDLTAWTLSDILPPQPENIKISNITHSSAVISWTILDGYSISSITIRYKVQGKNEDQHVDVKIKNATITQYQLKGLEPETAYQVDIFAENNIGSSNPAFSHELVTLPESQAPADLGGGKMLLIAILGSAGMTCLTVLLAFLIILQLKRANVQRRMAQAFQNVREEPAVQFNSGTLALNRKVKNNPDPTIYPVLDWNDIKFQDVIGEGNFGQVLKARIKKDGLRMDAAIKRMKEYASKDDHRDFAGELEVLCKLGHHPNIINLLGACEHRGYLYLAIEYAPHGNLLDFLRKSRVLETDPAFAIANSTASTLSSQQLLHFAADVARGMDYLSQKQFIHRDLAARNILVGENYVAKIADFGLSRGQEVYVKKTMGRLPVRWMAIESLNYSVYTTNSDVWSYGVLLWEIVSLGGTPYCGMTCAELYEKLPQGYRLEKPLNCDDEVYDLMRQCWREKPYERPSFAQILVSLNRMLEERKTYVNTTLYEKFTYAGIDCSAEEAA
Sequence of Tyrosine-protein kinase BTK (Q06187 whole entry): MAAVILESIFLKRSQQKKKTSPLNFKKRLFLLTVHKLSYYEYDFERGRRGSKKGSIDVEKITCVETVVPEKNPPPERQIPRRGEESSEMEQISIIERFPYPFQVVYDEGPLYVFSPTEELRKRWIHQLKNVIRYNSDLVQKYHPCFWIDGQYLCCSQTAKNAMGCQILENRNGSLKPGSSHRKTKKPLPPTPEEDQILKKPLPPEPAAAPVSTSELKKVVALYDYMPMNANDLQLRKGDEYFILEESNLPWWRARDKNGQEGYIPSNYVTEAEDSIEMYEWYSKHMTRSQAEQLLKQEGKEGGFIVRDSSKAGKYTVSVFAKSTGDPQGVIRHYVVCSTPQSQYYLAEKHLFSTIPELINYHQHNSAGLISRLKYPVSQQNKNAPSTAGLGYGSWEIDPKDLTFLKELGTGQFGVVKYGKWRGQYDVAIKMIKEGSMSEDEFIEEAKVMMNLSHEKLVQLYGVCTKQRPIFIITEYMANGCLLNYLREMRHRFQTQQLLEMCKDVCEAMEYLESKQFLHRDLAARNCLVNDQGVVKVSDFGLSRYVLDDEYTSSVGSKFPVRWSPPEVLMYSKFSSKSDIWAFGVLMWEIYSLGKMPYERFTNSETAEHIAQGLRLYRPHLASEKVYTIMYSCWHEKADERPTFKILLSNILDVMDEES
Sequence of Tyrosine-protein kinase Lyn (P07948 whole entry): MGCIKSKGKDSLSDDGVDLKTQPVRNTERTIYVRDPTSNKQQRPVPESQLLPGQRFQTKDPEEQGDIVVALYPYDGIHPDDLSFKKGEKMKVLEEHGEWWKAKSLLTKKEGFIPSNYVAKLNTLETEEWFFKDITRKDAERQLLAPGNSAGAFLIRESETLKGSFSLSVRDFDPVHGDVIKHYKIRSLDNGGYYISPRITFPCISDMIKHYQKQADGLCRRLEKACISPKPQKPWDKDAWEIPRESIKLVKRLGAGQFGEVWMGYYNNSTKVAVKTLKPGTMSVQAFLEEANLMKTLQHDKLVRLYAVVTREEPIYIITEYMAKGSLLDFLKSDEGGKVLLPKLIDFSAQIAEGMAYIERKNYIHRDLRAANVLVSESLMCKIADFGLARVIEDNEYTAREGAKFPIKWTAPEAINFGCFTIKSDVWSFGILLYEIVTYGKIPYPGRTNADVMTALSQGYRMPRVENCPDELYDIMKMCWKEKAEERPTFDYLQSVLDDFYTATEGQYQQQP

O=C(Nc1cccc(-c2cn3ccnc3c(NCc3ccncc3)n2)c1)Nc1cccc(C(F)(F)F)c1
IC50 [1]: 62 nM
IC50 [2]: 14.4 µM
IC50 [3]: 7.8 µM
IC50 [4]: 35 nM
IC50 [5]: 2000 nM
IC50 [6]: 6 µM
IC50 [7]: 7.7 µM
IC50 [8]: 67 nM
IC50 [9]: 747 nM
IC50 [10]: 33 nM
IC50 [11]: 71 nM
